According to patent publication US10426757B2, “Compositions and methods for promoting intestinal stem cell and/or non-stem progenitor cell function” (Whitehead Institute for Biomedical Research, priority 2014, dated 2019):

Test system: β-catenin target genes
Assay: Single cell qPCR of β-catenin target genes
Type: in vivo, mouse
Settings: ISCs and progenitors from GW501516-treated mice
Description: For one-tube single-cell sequence-specific pre-amplification, individual primer sets of β-catenin target genes (total of 96) were pooled to 0.1 mM final concentration for each primer. Single cells were directly sorted into 96 well plates containing 5 ul RT-PCR master mix (2.5 ul CellsDirect reaction mix, Invitrogen; 0.5 ul primer pool; 0.1 ul RT/Taq enzyme, Invitrogen; 1.9 ul nuclease free water) in each well. Immediately after, plates were placed on PCR machine for pre-amplification. Sequence specific pre-amplification PCR protocol was as following: 1) 60 minutes at 50° C. for cell lyses and sequence specific reverse transcription, 2) 3 minutes at 95° C. for reverse transcriptase inactivation and Taq polymerase activation. Then, cDNA was amplified by 20 cycles of 15 seconds at 95° C. for initial denaturation, […] at 60° C. for annealing and elongation. After pre-amplification, samples were diluted 1:5 prior to high throughput microfluidic real time PCR analysis using Fluidgm platform. […] Threshold crossing (Ct) values were calculated using the BioMark Real-Time PCR Analysis software (Fluidgm). […] Fold-changes were calculated as the difference of median of log2 expression levels for the two cell populations. […]

SMILES: Cc1cc(SCc2sc(-c3ccc(C(F)(F)F)cc3)nc2C)ccc1OCC(=O)O [GW501516, 2-[2-methyl-4-[[4-methyl-2-[4-(trifluoromethyl)phenyl]-1,3-thiazol-5-yl]methylsulfanyl]phenoxy]acetic acid]
- transcription of β-catenin target genes (Bmp4, Jag1, Jag2, Edn3): induction
